Assay results: EP0048954A2, “Beta-lactam compounds, process for the preparation thereof and intermediate products for the preparation thereof” (SAGAMI CHEMICAL RESEARCH CENTER, priority 1980, dated 1982)
≈ marks a conversion by molar mass, not a printed value. Structures can show the parent of a compound that is named as a salt.

Tests used:
Test in all cases: Antibacterial activity, minimum inhibition concentration (method of The Chemotherapy Association, Japan)
Format in all cases: cell-based
Proteus vulgaris OX-19 = settings: for minimum inhibition concentration: strain H: Proteus vulgaris OX-19; for MIC: Proteus vulgaris, OX19, strain H: Proteus vulgaris OX-19, read-out: minimum inhibition concentration
Text: (§1) The abbreviations A to P will be used in the following Tables 2 to 8.
(§2) Test results are shown in terms of the minimum inhibition concentration (µg/mℓ.) in the following Tables 2 to 8.

[1] = tested on: Salmonella typhimurium 3173; settings: strain D: Salmonella typhimurium 3173; for MIC: Salmonella enterica, TYPHIMURIUM, read-out: minimum inhibition concentration
Experimental: (§3) Antibacterial activities of the compounds according to this invention, which had been prepared in the preceding Examples, were measured according to the method prescribed by The Committee of Amendment of "The method for measurement of the minimum inhibition concentration", The Chemotherapy Association, Japan (See Chemotherapy, Vol. 22, No. 6, pp. 1126 - 1128 (1974) and Vol. 29, No. 1, pp. 76 - 79 (1981)).
as §1, §2

[2] = tested on: Serratia marcescens IFO-3736; settings: for minimum inhibition concentration: strain F: Serratia marcescens IFO-3736; for MIC: Serratia marcescens, IFO3736, strain F: Serratia marcescens IFO-3736, read-out: minimum inhibition concentration
Experimental: as §3, §1, §2

[3] = tested on: Bacillus subtilis ATCC 6633; settings: for minimum inhibition concentration: strain B: Bacillus subtilis ATCC 6633; for MIC: Bacillus subtilis, ATCC6633, strain B: Bacillus subtilis ATCC 6633, read-out: minimum inhibition concentration
Experimental: as §3, §1, §2

Klebsiella pneumoniae = settings: strain C: Klebsiella pneumoniae; for MIC: Klebsiella pneumoniae, read-out: minimum inhibition concentration
Experimental: as §3, §1, §2

Proteus morgani Kono = settings: strain J: Proteus morgani Kono; for MIC: read-out: minimum inhibition concentration
Experimental: as §3, §1, §2

[4] = tested on: Enterobactor cloacae NCTC-9394; settings: strain N: Enterobactor cloacae NCTC-9394; for MIC: read-out: minimum inhibition concentration
Experimental: as §3, §1, §2

[5] = tested on: Proteus mirabillis B-30-2 IFO-3849; settings: strain G: Proteus mirabillis B-30-2 IFO-3849; for MIC: read-out: minimum inhibition concentration
Experimental: as §3, §1, §2

Escherichia coli NIHJ = settings: strain K: Escherichia coli NIHJ; for MIC: Escherichia coli, read-out: minimum inhibition concentration
Experimental: as §3, §1, §2

[6] = tested on: Pseudomonas aeruginosa NCTC-10490; settings: for minimum inhibition concentration: strain M: Pseudomonas aeruginosa NCTC-10490; for MIC: Pseudomonas aeruginosa, NCTC10490, strain M: Pseudomonas aeruginosa NCTC-10490, read-out: minimum inhibition concentration
Experimental: as §3, §1, §2

Serratia marcescens 1023 = settings: for MIC: Serratia marcescens, 1023, strain E: Serratia marcescens 1023, read-out: minimum inhibition concentration
Experimental: as §3, §1, §2

[7] = tested on: Citrobactor freundii NIH-10018 -68; settings: strain O: Citrobactor freundii NIH-10018 -68; for MIC: read-out: minimum inhibition concentration
Experimental: as §3, §1, §2

Escherichia coli NIHJC-2 = settings: for minimum inhibition concentration: strain L: Escherichia coli NIHJC-2; for MIC: Escherichia coli, NIHJC2, strain L: Escherichia coli NIHJC-2, read-out: minimum inhibition concentration
Experimental: as §3, §1, §2

[8] = tested on: Staphylococcus aureus 6538-P; settings: strain A: Staphylococcus aureus 6538-P; for MIC: read-out: minimum inhibition concentration
Experimental: as §3, §1, §2

Proteus rettgeri NIH-96 = settings: for MIC: Providencia rettgeri, NIH96, strain I: Proteus rettgeri NIH-96, read-out: minimum inhibition concentration
Text: as §1, §2

Row | Molecule | minimum inhibition concentration (Proteus vulgaris OX-19) [µg/mL] | minimum inhibition concentration [1] [µg/mL] | minimum inhibition concentration [2] [µg/mL] | minimum inhibition concentration [3] [µg/mL] | minimum inhibition concentration (Klebsiella pneumoniae) [µg/mL] | MIC (Proteus vulgaris OX-19) [µg/mL] | MIC (Proteus rettgeri NIH-96) [µg/mL] | MIC [1] [µg/mL] | MIC [2] [µg/mL] | MIC [3] [µg/mL] | MIC (Klebsiella pneumoniae) [µg/mL] | MIC (Proteus morgani Kono) [µg/mL] | MIC [4] [µg/mL] | MIC [5] [µg/mL] | MIC (Escherichia coli NIHJ) [µg/mL] | MIC [6] [µg/mL] | MIC (Serratia marcescens 1023) [µg/mL] | MIC [7] [µg/mL] | MIC (Escherichia coli NIHJC-2) [µg/mL] | MIC [8] [µg/mL] | other results
1 | 7-[2-chloromethylene-2-(2-aminothiazol-4-yl)acetamido]-3-[(2,5-dihydro-6-hydroxy-2-methyl-5-oxo-as-triazin-3-yl)thiomethyl-3-cephem-4-carboxylic acid disodium salt [Compound 22] | 0.1 | 1.56 | 1.56 | 6.25 | 0.78 | – | – | – | – | – | – | – | – | – | – | – | – | – | – | – | minimum inhibition concentration (Proteus morgani Kono): 0.39 µg/mL; minimum inhibition concentration [4]: 0.39 µg/mL; minimum inhibition concentration [5]: 0.39 µg/mL; minimum inhibition concentration (Escherichia coli NIHJ): <0.00625 µg/mL; minimum inhibition concentration [6]: 6.25 µg/mL; minimum inhibition concentration (Serratia marcescens 1023; strain E: Serratia marcescens 1023): 6.25 µg/mL; minimum inhibition concentration [7]: 1.56 µg/mL; minimum inhibition concentration (Escherichia coli NIHJC-2): 3.125 µg/mL; minimum inhibition concentration [8]: 0.78 µg/mL
2 | 7-[2-dichloromethylene-2-(2-aminothiazol-4-yl)acetamido]-3-(l-carboxymethyltetrazol-5-yl)thiomethyl-3-cephem-4-carboxylic acid disodium salt [7-(3)] | 0.1 | 6.25 | 25 | 12.5 | 12.5 | – | – | – | – | – | – | – | – | – | – | – | – | – | – | – | minimum inhibition concentration (Proteus rettgeri NIH-96; strain I: Proteus rettgeri NIH-96): <0.025 µg/mL; minimum inhibition concentration (Proteus morgani Kono): 3.125 µg/mL; minimum inhibition concentration [4]: 3.125 µg/mL; minimum inhibition concentration [5]: 1.56 µg/mL; minimum inhibition concentration (Escherichia coli NIHJ): <0.025 µg/mL; minimum inhibition concentration [6]: 6.25 µg/mL; minimum inhibition concentration [7]: 12.5 µg/mL; minimum inhibition concentration (Escherichia coli NIHJC-2): 25 µg/mL; minimum inhibition concentration [8]: 6.25 µg/mL
3 | CC1=C(C(=O)O)N2C(=O)C(NC(=O)C(=CCl)c3csc(N)n3)C2SC1 (single isomer, unassigned) [Compound 23, 7-[2-chlromethylene-2-(2-aminothiazol-4-yl)acetamido]-desacetoxycephelosporanic acid sodium salt] | – | – | – | – | – | 12.5 | 0.39 | 50 | > 100 | 50 | 50 | > 100 | 12.5 | 25 | 6.25 | > 100 | 100 | 100 | 100 | 3.12 | –
4 | CC(=O)OCC1=C(C(=O)O)N2C(=O)C(NC(=O)C(=C(Cl)Cl)c3ccc(NC(=O)OC(C)(C)C)cc3)C2SC1 (stereo not shown) [4-(1), 7-[2-dichloromethylene-2-(4-tert-butoxycarbonyl-aminophenyl)acetamido]-3-acetoxymethyl-3-cephem-4-carboxylic acid] | – | – | – | – | – | > 100 | 6.25 (≈ 10.7 µM) | > 100 | > 100 | 6.25 (≈ 10.7 µM) | > 100 | > 100 | > 100 | > 100 | 6.25 (≈ 10.7 µM) | 50 (≈ 85.3 µM) | 6.25 (≈ 10.7 µM) | > 100 | > 100 | 0.39 (≈ 0.665 µM) | –
5 | CC(=O)OCC1=C(C(=O)O)N2C(=O)C(NC(=O)C(=C(Cl)Cl)c3ccc(N)cc3)[C@H]2SC1 (stereo partly shown) [4-(2), 7-[2-dichloromethylene-2-(4-aminophenyl)acetamido]-3-acetoxymethyl-3-cephem-4-carboxylic acid] | – | – | – | – | – | 6.25 (≈ 12.9 µM) | 0.2 (≈ 0.411 µM) | 100 (≈ 206 µM) | > 100 | 1.56 (≈ 3.21 µM) | > 100 | > 100 | > 100 | > 100 | 0.39 (≈ 0.802 µM) | 12.5 (≈ 25.7 µM) | 3.12 (≈ 6.43 µM) | > 100 | > 100 | 0.39 (≈ 0.802 µM) | –
